Data on ten compounds can be found in PubChem BioAssay (NCI).

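In this assay, cells in 96-well plates receive the compound at five concentrations for 48 hours. Endpoints are linearly interpolated between the surrounding concentrations. GI50 marks 50% less growth. TGI is the concentration that stops growth completely.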 Where only a bound is given, the exact number is not on record here.

Some test systems named below: HCT-116 colon; HL-60(TB) leukemia; MCF7 breast; OVCAR-3 ovarian; SR leukemia; T-47D breast; TK-10 renal; CAKI-1 renal; HOP-92 NSCLC; SF-295 CNS.
Holding throughout (test): inhibition of tumour cell growth, NCI panel, 48 h

Consider `CCOC(=O)NC(Nc1ccc(Cl)cn1)(C(F)(F)F)C(F)(F)F`, for which the TGI with HCT-116 colon, in the assay on HL-60(TB) leukemia, in the assay on MCF7 breast, in the assay with OVCAR-3 ovarian, with SR leukemia and in the assay on T-47D breast was above 100 µM throughout. In addition, the TGI in the assay with TK-10 renal was above 100 µM.

Consider `O=C(O)Cn1c2c(c3c(O)cccc31)C(=O)c1ccccc1-2`, for which the GI50 in the assay with CAKI-1 renal is above 100 µM; in the assay on HCT-116 colon it was 93.6 µM; with HL-60(TB) leukemia, above 100 µM; in the assay with HOP-92 NSCLC, above 100 µM; in the assay on MCF7 breast, above 100 µM; in the assay with OVCAR-3 ovarian, above 100 µM. The GI50 with SF-295 CNS, in the assay with T-47D breast and with TK-10 renal was above 100 µM each time. In addition, the TGI with CAKI-1 renal, in the assay with HCT-116 colon, in the assay with HL-60(TB) leukemia, in the assay with HOP-92 NSCLC, in the assay on MCF7 breast and with OVCAR-3 ovarian was above 100 µM in each case. Moreover, the TGI with SF-295 CNS, with T-47D breast and in the assay with TK-10 renal was above 100 µM throughout.

Turning to `CCCOC1OC(CS(=O)(=O)O)C(O)C(O)C1O` (stereo not given), the TGI in the assay on CAKI-1 renal, in the assay on HCT-116 colon, with HL-60(TB) leukemia, with HOP-92 NSCLC, with MCF7 breast and in the assay with OVCAR-3 ovarian was above 100 µM throughout. Further, the TGI in the assay on SF-295 CNS, in the assay on SR leukemia, in the assay on T-47D breast and with TK-10 renal was above 100 µM in each case.

For `CC(=O)N/C(=C\c1ccc(/C=C(\NC(C)=O)C2=NC3C(=O)c4ccccc4C(=O)C3N2)cc1)C1=NC2C(=O)c3ccccc3C(=O)C2N1` (stereo not given), the TGI in the assay on CAKI-1 renal, with HCT-116 colon, in the assay on HL-60(TB) leukemia, in the assay with HOP-92 NSCLC, in the assay on OVCAR-3 ovarian and with SF-295 CNS was above 100 µM each time. The compound further came in with a TGI in the assay on TK-10 renal of 69.3 µM.

Take `C=CCc1cccc(/C=N\N=C(/N)NO)c1O`: the TGI is 9.01 µM with CAKI-1 renal; above 79.6 µM with HCT-116 colon; above 21.4 µM with HL-60(TB) leukemia; above 67.9 µM in the assay with HOP-92 NSCLC; 9.82 µM in the assay on MCF7 breast; above 25.2 µM in the assay with OVCAR-3 ovarian. In the assay on SF-295 CNS, the TGI was determined as 7.09 µM.

In the case of `CCCCN=C1OCc2[nH][nH]c(=O)c21`, the TGI with CAKI-1 renal, in the assay on HCT-116 colon, with HL-60(TB) leukemia, in the assay on HOP-92 NSCLC, in the assay with SF-295 CNS and with SR leukemia was above 100 µM each time. In addition, the TGI in the assay with TK-10 renal is above 100 µM.

With `Cc1ccc(C2CC(c3cccc(Nc4ccncc4)c3)=NN2c2ccccc2)cc1` (stereo not given), the GI50 was 1.61 µM in the assay on CAKI-1 renal; 1.7 µM in the assay with OVCAR-3 ovarian; 1.76 µM in the assay on SF-295 CNS; 2.07 µM in the assay on SR leukemia; 2.02 µM in the assay on T-47D breast. Further, the TGI came out at 3.02 µM in the assay on CAKI-1 renal; 3.13 µM in the assay with OVCAR-3 ovarian; 3.17 µM in the assay with SF-295 CNS; 5.73 µM with SR leukemia; 4.85 µM in the assay with T-47D breast.

For `CCCCCCCCCCCCCCCC(=O)OC1C(O)C(CO)OC(OC)C1NC(=O)N(CCCl)N=O` (stereo not given), the TGI is above 100 µM in the assay on CAKI-1 renal; 30 µM in the assay on HCT-116 colon; 33.4 µM with OVCAR-3 ovarian; 24 µM in the assay with SF-295 CNS; 23.7 µM in the assay with SR leukemia; 28.9 µM in the assay with TK-10 renal.

`O=[As](O)(O)c1ccc2nc3cc([As](=O)(O)O)ccc3nc2c1`: the TGI with CAKI-1 renal, in the assay on HCT-116 colon, with HOP-92 NSCLC, in the assay with MCF7 breast, in the assay with OVCAR-3 ovarian and in the assay with SF-295 CNS was above 100 µM throughout. Further, the TGI in the assay on SR leukemia, in the assay on T-47D breast and with TK-10 renal was above 100 µM in each case.

As to `C[C@]12CC[C@@H]3c4ccc(OCCN5CCCC5)cc4CC[C@H]3[C@@H]1CCC2=O`, the TGI in the assay with CAKI-1 renal is 81.5 µM; in the assay with HL-60(TB) leukemia, above 100 µM; in the assay on HOP-92 NSCLC, above 100 µM; with MCF7 breast, 48.2 µM; with OVCAR-3 ovarian, 68.8 µM; in the assay with SF-295 CNS, 43.2 µM. The TGI in the assay with SR leukemia, in the assay on T-47D breast and in the assay on TK-10 renal was above 100 µM in each case.
